According to patent publication US8741570B2, “Thermo-optical characterisation of nucleic acid molecules” (Ludwig-Maximilians-Universitat Munchen, priority 2008, dated 2014):
{AF700} = Alexa Fluor 700 fluorescent dye

Tests used:
bacteriophage lambda DNA = test: DNA hybridization thermophoresis of labelled probe with lambda DNA; format: binding
Protocol: Typical target molecules are longer than 20 bases and double stranded. For target molecules longer than 20 bases and double stranded, one has to expect a competing reaction between the labeled probe and the target DNA strands containing the same “probe-sequence”. […] The concentration change is determined in samples containing the pure DNA probe and in solutions containing the probe mixed with lambda DNA. We checked twice for the hybridization of probe DNA and lambda DNA. First after simply mixing of the molecules and second after an additional annealing procedure (94° C., 5 min and 72° C., 5 min) was carried out.
The experiment shown in FIG. 38 (b) is performed at a constant concentration of 40 nM probe DNA and 10 nM target DNA. All samples are preferably measured in a 100 μm-1 mm Capillary. The thermo-optical properties of the probe DNA have been determined in an independent experiment, followed by a mix of probe and target. […]
After an equilibration time of preferably 10 seconds a first capillary can be measured. […]
Step 1. […] (The thermo-optical properties (i.e. concentration change) of the free probe molecule is known from an independent experiment. Alternatively the thermo-optical behavior of a DNA molecule similar to the probe, but not complementary to a target molecule, is measured simultaneously in a multiplex approach (internal reference)).
Step 2. […] The immediately established local spatial temperature distribution causes the labeled primers and elongated primers (as well as internal reference standards) to drift to lower or higher temperatures, depending on the particular molecule to be analyzed and conditions like pH, salt concentration etc. […] The maximum temperature elevation is set below values which would harm the molecules to be analyzed or hinder their hybridization. […]
Step 3. During the laser heating an image of the fluorescence distribution is recorded (or multiple frames which may be averaged to a single image). Afterwards the infrared laser and the fluorescence excitation light source are turned off. […]

[1] = Hydration entropy from literature; format: physicochemical; conditions: linear scaling with surface area using radius a=2 nm
Text: The intercept ST(λDH=0), where ionic contributions are zero, also scales with particle surface and is described by a hydration entropy per particle surface of shyd=−1400 J/(molKμm^2). The value matches the literature values for similar surfaces reasonably well^30,31. […] Linear scaling with its surface area by using a radius of a=2 nm results in a value of shyd=−2500 J/(molKμm^2), in qualitative agreement with our result. The hydration entropy is a highly informative molecule parameter which is notoriously difficult to measure, yielding an interesting application for thermodiffusion.

[2] = at a comparable temperature; cited from earlier work
[3] = Thermodiffusion (Soret coefficient) by microfluidic fluorescence imaging / single particle tracking; format: physicochemical; conditions: 50 μM dye in 10 mM TRIS buffer, concentration over time method

## 5′-GATGAGTTCGTGTCCGTACAACTGG-3′ (DNA, 5' {AF700}, backbone and methylation of C not given here) [probe]
Bacteriophage lambda DNA; free probe, 40 nM
  concentration change: −2%
Bacteriophage lambda DNA; probe 40 nM mixed with 10 nM lambda DNA, without annealing procedure
  concentration change: −3%
Bacteriophage lambda DNA; probe 40 nM with 10 nM lambda DNA after denaturing (94° C., 5 min) and annealing (72° C., 5 min)
  concentration change: −10%

## C[C@H](NS(=O)(=O)c1cccc2c(N(C)C)cccc12)C(=O)O [Dansyl-Alanine]
[1]
  hydration entropy per surface shyd: −2500 J/(molKμm^2)
[2]
  hydration entropy: −0.13 J/(molK)

## BCECF
[3]
  Soret coefficient ST: 0.015 /K
